Data from the Bradley open melting point set (2014).
“And” between values parts separate entries of the source, which are not always exact repeats. Equal values may be shown once.

Going from O=C1CCC2CCc3ccccc3C2O1 (stereo not drawn) [3,4,4a,5,6,10b-hexahydro-2H-benzo[h]chromen-2-one] to NC1CCc2ccccc21 (stereo not drawn) [1-aminoindane], the melting point falls from 139 °C to 2 °C.

First: O=C(OCc1ccccc1)c1ccccc1 [benzyl_benzoate]
Second: O=C(OCc1ccccc1)c1ccc(B(O)O)cc1 [4-(benzyloxycarbonyl)benzeneboronic acid]
The melting point of the first is lower: 19 °C for the first, 190 °C for the second.

Going from Cc1ccc(O)cc1 [p-Cresol] to C=Cc1ccc(C)cc1 [1-Methyl-4-vinylbenzene], the melting point falls from 34 °C to -72.5 °C.

First: CC(C)(Oc1ccc(CCNC(=O)c2ccc(Cl)cc2)cc1)C(=O)O [bezafibrate]
Second: ClC(Cl)=C(c1ccc(Cl)cc1)c1ccc(Cl)cc1 [4,4'-DDE]
The melting point of the first is higher: 186 °C for the first, 89 °C for the second.

Compared with COc1cc(Cl)cc(B(O)O)c1 [3-chloro-5-methoxybenzeneboronic acid], OB(O)c1ccsc1 [thiophene-3-boronic acid] is lower in melting point: 187 °C for the first, 167 °C for the second.

First: C[Si]1(C)O[Si](C)(C)O[Si](C)(C)O[Si](C)(C)O1 [octamethylcyclotetrasiloxane]
Second: CC1(C)O[C@@H]2CO[C@]3(COC(C)(C)O3)C(=O)[C@@H]2O1 [D-epoxone]
The melting point of the first is lower: 18 °C for the first, 102 °C for the second.

Compared with Oc1ccc(Cl)c(O)c1 [4-Chlorobenzene-1,3-diol], Oc1cccc(Cl)c1Cl [2,3-dichlorophenol] is lower in melting point: 107 °C for the first, 59 °C for the second.

Going from OB(O)c1ccc(OCc2ccccc2)nc1 [6-benzyloxypyridine-3-boronic acid] to O=C(O)c1ccc(OCc2ccccc2)cc1F [4-benzyloxy-2-fluorobenzoic acid], the melting point rises from 109 °C to 167 °C.

Going from Clc1ccc(I)cc1 [1-chloro-4-iodobenzene] to CC(=O)c1ccc(Cl)cc1 [4'-chloroacetophenone], the melting point falls from 55 °C to 19 °C.

Compared with C=CC(C)CC (stereo not drawn) [3-methyl-1-pentene], CC[SiH2]CC [diethylsilane] is higher in melting point: -153 °C for the first, -132 °C for the second.

Going from C1CCOC1 [tetrahydrofuran] to C1=CCCCC1 [cyclohexene], the melting point rises from -108 °C to -104 °C.

First: O=Cc1cccc(C=O)c1 [Isophthalaldehyde]
Second: CC(=O)Oc1ccccc1C=O [o-acetoxybenzaldehyde]
The melting point of the first is higher: 88.8 °C for the first, 38 °C for the second.

First: Cc1ccc(N)c(C)c1 [2,4-Dimethylaniline]
Second: Cc1ccc(N)c(N)c1 [4-Methylbenzene-1,2-diamine]
The melting point of the first is lower: 16 °C for the first, 89.5 °C for the second.

Compared with N#Cc1cccc(O)c1 [3-cyanophenol], Oc1ccccc1 [phenol] is lower in melting point: 82 °C for the first, 41 °C for the second.

Compared with O=C(O)c1cc(F)c(Cl)nc1Cl [2,6-dichloro-5-fluoronicotinic acid], CCc1cnc(C(=O)O)c(C(=O)O)c1 [5-ethylpyridine-2,3-dicarboxylic acid] is lower in melting point: 154 °C for the first, 153 °C for the second.

First: CCCCOCC [ethyl_butyl_ether]
Second: CCC/C=C\CCC [cis-4-octene]
The melting point of the first is higher: -103 °C for the first, -119 °C for the second.

First: CCOC(=O)c1ccc(N=C=O)cc1 [4-(ethoxycarbonyl)phenyl isocyanate]
Second: CCOC(=O)c1ccc(O)cc1 [ethylparaben]
The melting point of the first is lower: 30 °C for the first, 116 °C for the second.

First: CCCCCCCCS [1-octanethiol]
Second: CCCCCCCCc1ccccc1 [N-octylbenzene]
The melting point of the first is lower: -49 °C for the first, -36 °C for the second.

First: N#CCCc1ccccc1 [3-phenylpropionitrile]
Second: NCc1ccccc1 [benzylamine]
The melting point of the first is lower: -2 °C for the first, 10 °C for the second.

Compared with CNC(=S)NCO [noxythiolin], CCC(=O)O [propanoic acid] is lower in melting point: 88 °C for the first, -20.7 °C for the second.

Going from CC1(C)OC(CP(c2ccccc2)c2ccccc2)C(CP(c2ccccc2)c2ccccc2)O1 (stereo not drawn) to c1ccc(Oc2ccccc2)cc1 [Diphenyl ether], the melting point falls from 87 °C to 27 °C.

First: CCC1(c2ccccc2)C(O)=NC(=O)N=C1O [phenobarbital]
Second: COc1ccccc1C(=O)O [2-methoxybenzoic acid]
The melting point of the first is higher: 176 °C for the first, 101 °C for the second.

Compared with CSC1N=NC(N)=C1C#N (stereo not drawn) [1H-pyrazole-4-carbonitrile, 3-amino-5-(methylthio)-], CC1=CC(C)=NC2N=NC(N)=C12 (stereo not drawn) [4,6-Dimethyl-2H-pyrazolo[3,4-b]pyridin-3-amine] is higher in melting point: 190 °C for the first, 280 °C for the second.

First: CCC(C)(C)C(=O)O[C@H]1C[C@@H](C)C=C2C=C[C@H](C)[C@H](CC[C@@H]3C[C@@H](O)CC(=O)O3)[C@H]21 [simvastatin]
Second: CO[C@@H]1[C@@H](O[C@@H]2O[C@H](C)[C@@H](O[C@H]3C[C@@](C)(O)[C@@H](OC(=O)CC(C)C)[C@H](C)O3)[C@H](N(C)C)[C@H]2O)[C@@H](CC=O)C[C@@H](C)[C@@H](O)C=CC=CC[C@@H](C)OC(=O)C[C@H]1OC(C)=O [Josamycin]
The melting point of the first is higher: 136 °C for the first, 132 °C for the second.

Going from Cc1cc(C)c(C)cc1C [1,2,4,5-tetramethylbenzene] to Cc1ccc(C)c2c1C(=O)OC2O (stereo not drawn) [3-hydroxy-4,7-dimethyl-2-benzofuran-1(3H)-one], the melting point rises from 80 °C to 158 °C.

Compared with C=C(C)C(=O)OC [Methyl methacrylate], CCOC(=O)CC(=O)OCC [diethyl malonate] is lower in melting point: -48 °C for the first, -50 °C for the second.

Compared with CCOC(=O)NCCOc1ccc(Oc2ccccc2)cc1 [fenoxycarb], CCOc1ccc(NC(C)=O)cc1 [Phenacetin] is higher in melting point: 53.5 °C for the first, 135 °C for the second.

Compared with O=C1COC(c2ccc(C(F)(F)F)cc2)CN1 (stereo not drawn) [flumetramide], O=C(c1ccc(F)cc1)c1ccc(F)cc1 [4,4'-difluorobenzophenone] is lower in melting point: 116 °C for the first, 108 °C for the second.

First: COc1ccc(OC)cc1 [p-dimethoxybenzene]
Second: COc1ccc(-c2oc3c(OC)c(OC)ccc3c(=O)c2O)cc1 [3-hydroxy-4',7,8-trimethoxyflavone]
The melting point of the first is lower: 60 °C for the first, 198 °C for the second.

First: C=CCOc1ccc(CC(=O)O)cc1Cl [alclofenac]
Second: Cc1ccc(C)c(CC(=O)O)c1 [2,5-dimethylphenylacetic acid]
The melting point of the first is lower: 92 °C for the first, 128 °C for the second.

Going from Clc1cc(Cl)c(Cl)cc1Cl [1,2,4,5-Tetrachlorobenzene] to Oc1cc(Cl)c(-c2c(Cl)cc(Cl)cc2Cl)c(Cl)c1O [PCB-155], the melting point falls from 139 °C to 113 °C.

First: Nc1nc2c(ncn2COCCO)c(=O)[nH]1 [acyclovir]
Second: Nc1nc(-c2ccc(Br)cc2)cs1 [2-amino-4-(4-bromophenyl)thiazole]
The melting point of the first is higher: 255 °C for the first, 184 °C for the second.

First: NS(N)(=O)=O [sulfamide]
Second: COc1ccc(NS(=O)(=O)c2ccc(N)cc2)nn1 [Sulfamethoxypyridazine]
The melting point of the first is lower: 92 °C for the first, 182 °C for the second.

Going from CN1CCN(CCCN2c3ccccc3Sc3ccc(Cl)cc32)CC1 [prochlorperazine] to N#Cc1ccc2c(c1)N(CCCN1CCC(O)CC1)c1ccccc1S2 [Propericiazine], the melting point falls from 228 °C to 116 °C.

First: CCCCl [1-Chloropropane]
Second: CCCCC1(CC)C(=O)NC(=O)NC1=O [5-butyl-5-ethylbarbituric acid]
The melting point of the first is lower: -122 °C for the first, 128 °C for the second.

Going from c1ccc(C2CCCCC2)cc1 [Cyclohexylbenzene] to O/N=C/C1=C(/C=C/c2ccccc2)CCC1, the melting point rises from 5 °C to 163 °C.

First: O=C1C=CC(=O)C2CC3=C(CC4=C(C3)CC3C(=O)C=CC(=O)C3C4)CC12 (stereo not drawn)
Second: COc1ccccc1N1CCN(CCCC(=O)c2ccc(F)cc2)CC1 [fluanisone]
The melting point of the first is higher: 338 °C for the first, 68 °C for the second.

Compared with CC/N=c1/nc(Cl)[nH]/c(=N\C(C)C)[nH]1 [Atrazine], CCc1nnc(N)s1 [5-Ethyl-1,3,4-thiadiazol-2-amine] is higher in melting point: 177 °C for the first, 201 °C for the second.

Going from Oc1ccc(Cl)cc1-c1cc[nH]n1 [4-chloro-2-(1h-pyrazol-3-yl)phenol] to O=[N+]([O-])c1ccc(O)c2ccccc12 [4-nitro-1-naphthol], the melting point rises from 157 °C to 166 °C.

Going from COc1ccc2c(c1)[nH]c1c(C)nccc12 [harmine] to Cc1ccc(CCc2ccc(C)cc2)cc1 [4,4'-Dimethylbibenzyl], the melting point falls from 264 °C to 78 °C.

Going from CC(=O)Oc1ccccc1C(=O)O [aspirin] to COc1ccccc1NC(=O)/C=CC(=O)O [N-(2-methoxyphenyl)maleamic acid], the melting point rises from 138 °C to 144 °C.

Compared with CCCCCCCCCCCCO[C@@H]1O[C@H](CO)[C@@H](O[C@H]2O[C@H](CO)[C@@H](O)[C@H](O)[C@H]2O)[C@H](O)[C@H]1O [Dodecyl 4-O-alpha-D-glucopyranosyl-beta-D-glucopyranoside], CCCCCCCCCCSc1cc(N(NC(=O)OC(C)(C)C)C(=O)OC(C)(C)C)cc(SCCCCCCCCCC)c1SCCCCCCCCCC is lower in melting point: 150 °C for the first, 50.5 °C for the second.

First: CN[C@@H](C)[C@H](O)c1ccccc1 [Ephedrine]
Second: OCC(c1ccccc1)c1ccccc1 [2,2-Diphenylethanol]
The melting point of the first is lower: 34 °C for the first, 54.5 °C for the second.

Going from Oc1ccc2ccc(O)cc2c1 [2,7-dihydroxynaphthalene] to Nc1ccccc1NNc1ccccc1 [2-(2-phenylhydrazino)aniline], the melting point falls from 186 °C to 107 °C.

Compared with O=C(O)c1ccc(Cl)c([N+](=O)[O-])c1 [4-chloro-3-nitrobenzoic acid], Cc1ccc([N+](=O)[O-])cc1Br [2-bromo-4-nitrotoluene] is lower in melting point: 183 °C for the first, 76 °C for the second.

Going from C=CC(=O)O [Acrylic Acid] to O=C(O)c1csnn1 [1,2,3-thiadiazole-4-carboxylic acid], the melting point rises from 13.5 °C to 228 °C.

Compared with CC(C)(C)OC(=O)N1CCC[C@H]1CO [N-boc-L-prolinol], CC(C)CCCC(C)(C)O [2,6-dimethyl-2-heptanol] is lower in melting point: 61 °C for the first, -10 °C for the second.

Compared with O=C1CN(/N=C/c2ccc([N+](=O)[O-])o2)C(=O)N1 [nitrofurantoin], COc1cc(C=O)cc([N+](=O)[O-])c1O [5-nitrovanillin] is lower in melting point: 263 °C for the first, 176 °C for the second.

Compared with O=C(O)CCCC(=O)O [glutaric acid], NC(=O)c1cccnc1 [nicotinamide] is higher in melting point: 97 °C for the first, 130 °C for the second.

Clc1cccc(Cl)c1N=C1NCCN1 [clonidine] showed a melting point of 130 °C.

For c1ccc2ccccc2c1 [naphthalene], the melting point was 80 °C and 82 °C and 81 °C.
With C(=C\c1ccccc1)/c1ccccc1 [trans-stilbene] the melting point was 125 °C and 124 °C.
With CCCCCCCCCCCO [1-undecanol] the melting point was 16 °C and 14 °C.
For C[C@H](O)CN [(2S)-1-amino-2-propanol], the melting point was 22.5 °C and 25 °C.
